Measured values as given in patent publication US10646488B2 (Araxes Pharma LLC, priority 2016, dated 2020).

Molecular target: T1, KRAS G12C 1-169, his-tagged protein, GDP-loaded (Homo sapiens, UniProt P01116, G12C)
T1 construct: KRAS G12C 1-169, his-tagged protein, GDP-loaded
Test: Covalent binding (% modification) to KRAS G12C by mass spectrometry; also: test concentration or dose not given here
Details: covalent binding to KRAS G12C after a ten minute incubation period

| Molecule | Binding % |
| --- | --- |
| C=CC(=O)N1C[C@H](C)N(c2nc(OCCN3CC(F)(F)C3)nc3c(F)c(-c4c(O)cccc4F)c(Cl)cc23)C[C@H]1C (atropisomer, axis not shown) [Compound 84, 1-((2R,5S)-4-((S)-6-chloro-2-(2-(3,3-difluoroazetidin-1-yl)ethoxy)-8-fluoro-7-(2-fluoro-6-hydroxyphenyl)quinazolin-4-yl)-2,5-dimethyl-piperazin-1-yl) prop-2-en-1-one] | +++ (+++ indicates binding activity greater than 90%) |
| C=CC(=O)N1C[C@H](C)N(c2nc(N3CC(N(C)C)C3)nc3c(F)c(-c4c(O)cccc4F)c(Cl)cc23)C[C@H]1C (atropisomer, axis not shown) [Compound 52, 1-((2R,5S)-4-((S)-6-chloro-2-(3-(dimethylamino)azetidin-1-yl)-8-fluoro-7-(2-fluoro-6-hydroxyphenyl)quinazolin-4-yl)-2,5-dimethyl-piperazin-1-yl) prop-2-en-1-one] | +++ (+++ indicates binding activity greater than 90%) |
| C=CC(=O)N1C[C@@H](C)N(c2nc(NC3CCN(C4CC4)CC3)nc3c(F)c(-c4c(C)ccc5cn[nH]c45)c(Cl)cc23)[C@@H](C)C1 [Compound 43, 1-((3S,5R)-4-(6-chloro-2-((1-cyclopropyl-piperidin-4-yl)amino)-8-fluoro-7-(6-methyl-1H-indazol-7-yl)quinazolin-4-yl)-3,5-dimethyl-piperazin-1-yl) prop-2-en-1-one] | ++ (++ indicates binding activity from 50 to 90%) |
| C=CC(=O)N1CCN(c2nc(N3CC(N(C)C)C3)nc3c(F)c(-c4c(O)cccc4F)c(Cl)cc23)C[C@H]1C (atropisomer, axis not shown) [Compound 60, 1-((R)-4-((S)-6-chloro-2-(3-(dimethylamino)azetidin-1-yl)-8-fluoro-7-(2-fluoro-6-hydroxyphenyl)quinazolin-4-yl)-2-methyl-piperazin-1-yl) prop-2-en-1-one] | +++ (+++ indicates binding activity greater than 90%) |
| C=CC(=O)N1C[C@@H](C)N(c2nc(N3CC(N(C)C)C3)nc3c(F)c(-c4c(O)cccc4F)c(Cl)cc23)C[C@@H]1C [Compound 81, 1-((2S,5R)-4-(6-chloro-2-(3-(dimethylamino)azetidin-1-yl)-8-fluoro-7-(2-fluoro-6-hydroxyphenyl)quinazolin-4-yl)-2,5-dimethyl-piperazin-1-yl) prop-2-en-1-one] | + (+ indicates binding activity up to 50%) |
| C=CC(=O)N1CCN(c2nc(OCCN3CC(F)(F)C3)nc3c(F)c(-c4c(O)cccc4F)c(Cl)cc23)C[C@H]1C (atropisomer, axis not shown) [Compound 63, 1-((R)-4-((S)-6-chloro-2-(2-(3,3-difluoroazetidin-1-yl)ethoxy)-8-fluoro-7-(2-fluoro-6-hydroxyphenyl)quinazolin-4-yl)-2-methyl-piperazin-1-yl) prop-2-en-1-one] | +++ (+++ indicates binding activity greater than 90%) |
| C=CC(=O)N1C[C@H](C)N(c2nc(OCCN3CC(F)(F)C3)nc3c(F)c(-c4c(O)cccc4F)c(Cl)cc23)C[C@H]1C (atropisomer, axis not shown) [Compound 83, 1-((2R,5S)-4-((R)-6-chloro-2-(2-(3,3-difluoroazetidin-1-yl)ethoxy)-8-fluoro-7-(2-fluoro-6-hydroxyphenyl)quinazolin-4-yl)-2,5-dimethyl-piperazin-1-yl) prop-2-en-1-one] | + (+ indicates binding activity up to 50%) |

Same assay, conditions: covalent binding to KRAS G12C after a three minute incubation period

| Molecule | Binding % |
| --- | --- |
| C=CC(=O)N1C[C@H](C)N(c2nc(N3CC4(CCCN(C)C4)C3)nc3c(F)c(-c4c(O)cccc4F)c(Cl)cc23)C[C@H]1C [Compound 183, 1-((2R,5S)-4-(6-chloro-8-fluoro-7-(2-fluoro-6-hydroxyphenyl)-2-(6-methyl-2,6-diazaspiro[3.5]nonan-2-yl)quinazolin-4-yl)-2,5-dimethyl-piperazin-1-yl) prop-2-en-1-one] | ++ (++ indicates binding activity from 50 to 90%) |
| C=CC(=O)N1C[C@H](C)N(c2nc(N3CC(N(C)CC)C3)nc3c(F)c(-c4c(C)ccc5[nH]ncc45)c(Cl)cc23)C[C@H]1C [Compound 119, 1-((2R,5S)-4-(6-chloro-2-(3-(ethyl(methyl)amino)azetidin-1-yl)-8-fluoro-7-(5-methyl-1H-indazol-4-yl)quinazolin-4-yl)-2,5-dimethyl-piperazin-1-yl) prop-2-en-1-one] | + (+ indicates binding activity greater than 0% and up to 50%) |
| C=CC(=O)N1C[C@H](C)N(c2nc(OCCN(CC)CC)nc3c(F)c(-c4c(C)ccc5cn[nH]c45)c(Cl)cc23)C[C@H]1C (atropisomer, axis not shown) [Compound 156, 1-((2R,5S)-4-(6-chloro-2-(2-(diethylamino)ethoxy)-8-fluoro-7-((R)-6-methyl-1H-indazol-7-yl)quinazolin-4-yl)-2,5-dimethyl-piperazin-1-yl) prop-2-en-1-one] | +++ (+++ indicates binding activity greater than 90%) |
| 1-((2R,5S)-4-(6- chloro-2-(2- (diethylamino) ethoxy)-8-fluoro- 7-((S)-6-methyl- 1H-indazol-7-yl) quinazolin-4-yl)- 2,5-dimethyl- piperazin-1-yl) prop-2-en-1-one [Compound 157] | + (+ indicates binding activity greater than 0% and up to 50%) |
| C=CC(=O)N1C[C@H](C)N(c2nc(N3CC4(CCCN4C)C3)nc3c(F)c(-c4c(C)ccc5[nH]ncc45)c(Cl)cc23)C[C@H]1C [Compound 186, 1-((2R,5S)-4-(6-chloro-8-fluoro-7-(5-methyl-1H-indazol-4-yl)-2-(5-methyl-2,5-diazaspiro[3.4]octan-2-yl)quinazolin-4-yl)-2,5-dimethyl-piperazin-1-yl) prop-2-en-1-one] | ++ (++ indicates binding activity from 50 to 90%) |
| C=CC(=O)N1C[C@H](C)N(c2nc(N3CC(N(C)C)C3)nc3c(F)c(-c4ccccc4O)c(Cl)cc23)C[C@H]1C [Compound 135, 1-((2R,5S)-4-(6-chloro-2-(3-(dimethylamino)azetidin-1-yl)-8-fluoro-7-(2-hydroxyphenyl)quinazolin-4-yl)-2,5-dimethyl-piperazin-1-yl) prop-2-en-1-one] | ++ (++ indicates binding activity from 50 to 90%) |
| C=CC(=O)N1C[C@H](C)N(c2nc(N3CC(N(C)C)C3)nc3c(F)c(-c4c(F)cccc4F)c(Cl)cc23)C[C@H]1C [Compound 180, 1-((2R,5S)-4-(6-chloro-7-(2,6-difluorophenyl)-2-(3-(dimethyl-amino)azetidin-1-yl)-8-fluoro-quinazolin-4-yl)-2,5-dimethyl-piperazin-1-yl) prop-2-en-1-one] | + (+ indicates binding activity greater than 0% and up to 50%) |
| C=CC(=O)N1C[C@H](C)N(c2nc(N3CC(N(CC)CC)C3)nc3c(F)c(-c4c(C)ccc5cn[nH]c45)c(Cl)cc23)C[C@H]1C [Compound 117, 1-((2R,5S)-4-(6-chloro-2-(3-(diethylamino)azetidin-1-yl)-8-fluoro-7-(6-methyl-1H-indazol-7-yl)quinazolin-4-yl)-2,5-dimethyl-piperazin-1-yl) prop-2-en-1-one] | + (+ indicates binding activity greater than 0% and up to 50%) |
